Read-outs that look alike come from different tables or passages of the source.
Assays:
[1] = target: T1, Savinase (Lederbergia lenta, UniProt P29600); experiment: biochemical
T1 construct: Novozymes A/S
T1 sequence (P29600 1-269): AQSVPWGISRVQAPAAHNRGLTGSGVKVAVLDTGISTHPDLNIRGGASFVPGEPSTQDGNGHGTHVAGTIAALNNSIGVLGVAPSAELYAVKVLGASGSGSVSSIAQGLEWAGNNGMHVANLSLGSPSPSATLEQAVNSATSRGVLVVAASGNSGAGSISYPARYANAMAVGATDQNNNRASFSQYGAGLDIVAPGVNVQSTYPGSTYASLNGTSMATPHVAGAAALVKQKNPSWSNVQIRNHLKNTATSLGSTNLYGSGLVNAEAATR
Method: The inhibition constant KI=[E][I]/[EI] for the inhibition of Savinase was determined using standard methods under the following conditions:
Substrate: Succinyl-Alanine-Alanine-Proline-para-nitro-anilide=SAAPFpNA (Sigma S-7388).
Buffer: 0.1 M phosphate buffer pH 7.5
Enzyme concentration in assay≈1×10^−8 M
The initial rate of substrate hydrolysis was determined with and without inhibitor at nine substrate concentrations in the range of 0.01 mM to 2 mM using an automated spectrophotometer.
The inhibition constant KI was determined using Sigma Plot 9.0, Enzyme Kinetics Module 1.1

[2] = target: subtilisin (Bacillus licheniformis, UniProt P00780); conditions: Keller et al, Biochem. Biophys. Res. Com. 176, 1991; cited from earlier work
Chain of subtilisin (P00780 106-379): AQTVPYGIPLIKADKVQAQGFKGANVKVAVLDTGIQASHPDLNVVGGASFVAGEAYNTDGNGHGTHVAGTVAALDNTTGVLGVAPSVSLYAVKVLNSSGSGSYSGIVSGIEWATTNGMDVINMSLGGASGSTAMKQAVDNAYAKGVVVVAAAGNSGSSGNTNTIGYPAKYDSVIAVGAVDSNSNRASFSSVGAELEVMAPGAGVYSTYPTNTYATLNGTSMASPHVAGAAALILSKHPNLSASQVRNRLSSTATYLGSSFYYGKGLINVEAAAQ

[3] = test system: proteolytic enzymes; conditions: as claimed in WO 92/19707; cited from earlier work
[4] = Example 2, acids, 0.1 M phosphate buffer pH 7.5, 25° C., substrate SAAPFpNA 0.01-2 mM, enzyme ≈1×10^−8 M, read-out: Ki
[5] = Example 1, 0.1 M phosphate buffer pH 7.5, 25° C., substrate SAAPFpNA 0.01-2 mM, enzyme ≈1×10^−8 M, read-out: Ki

Row | SMILES | Ki [1, 4] [mM] | also measured
1 | Nc1ccccc1C(=O)O [2-aminobenzoic acid] |  | Ki [1]: 16 mM
2 | O=C(O)c1ccccc1Cl [2-chlorobenzoic acid] | 16 | 
3 | O=C(O)Cc1ccccc1Cl [2-chlorophenylacetic acid] |  | Ki [1]: 11 mM
4 | O=Cc1ccc(O)c(O)c1 [3,4-dihydrozybenzaldehyde] |  | Ki [1]: 11 mM
5 | OB(O)c1cc(Cl)cc(Cl)c1 [3,5-dichlorophenylboronic acid] |  | capacity as subtilisin inhibitor [2]: particularly effective
6 | O=C(O)c1cc(Cl)cc(Cl)c1 [3,5-dichorobenzoic acid] |  | Ki [1, 5]: 2 mM
7 | O=C(O)CCc1cccc(Cl)c1 [3-(3-chlorophenyl)propionic acid] | 5 | 
8 | O=C(O)CCc1ccc(Cl)cc1 [3-(4-chlorophenyl)propionic acid] | 10 | 
9 | Nc1cccc(C(=O)O)c1 [3-aminobenzoic acid] | 43 | 
10 | O=C(O)c1cccc(Cl)c1 [3-chlorobenzoic acid] |  | Ki [1]: 4 mM
11 | O=C(O)Cc1cccc(Cl)c1 [3-chlorophenylacetic acid] |  | Ki [1]: 7 mM
12 | O=Cc1cccc(O)c1 [3-hydroxybenzaldehyde] |  | Ki ([1]; Example 3, aldehydes, 0.1 M phosphate buffer pH 7.5, 25° C., substrate SAAPFpNA 0.01-2 mM, enzyme ≈1×10^−8 M, read-out: Ki): 16 mM
13 | O=C(O)c1cccc(I)c1 [3-iodobenzoic acid] | 9 | 
14 | Nc1ccc(C(=O)O)cc1 [4-aminobenzoic acid] | 82 | 
15 | O=Cc1ccc(C(=O)O)cc1 [4-formylbenzoic acid] |  | Ki [1, 5]: 25 mM
16 | O=C(O)CCCc1ccccc1 [4-phenylbutyric acid] | 19 | 
17 | O=C(O)c1ccccc1 [Benzoic Acid] |  | Ki [1]: 22 mM
18 | O=C(O)Cc1ccccc1 [Phenylacetic acid] |  | Ki [1]: 10 mM
19 | O=C(O)CCc1ccccc1 [Phenylpropionic acid] |  | Ki [1, 5]: 9 mM
20 | O=C(O)c1ccc(C(=O)O)cc1 [Terephtalic acid (4-carboxybenzoic acid)] |  | Ki [1, 5]: 99 mM
21 | CC(=O)Nc1cccc(B(O)O)c1 [acetamidophenyl boronic acid] |  | inhibitor of proteolytic enzymes [3]: superior inhibitor
22 | CB(O)O [methylboronic acid] |  | capacity as subtilisin inhibitor [2]: poorest inhibitor

The next lines start with results.

Row | Ki [1, 4] [mM] | SMILES | also measured
23 | 76 | O=C(O)c1cc(O)cc(O)c1 [3,5-dihydroxybenzoic acid] | 
24 | 32 | O=C(O)c1cccc(CCl)c1 [3-(chloromethyl)benzoic acid] | 
25 | 6 | O=C(O)c1cccc(Br)c1 [3-bromobenzoic acid] | 
26 | 17 | O=C(O)c1cccc(F)c1 [3-fluorobenzoic acid] | 
27 | 27 | O=Cc1cccc(C(=O)O)c1 [3-formylbenzoic acid] | 
28 | 29 | O=C(O)c1cccc(O)c1 [3-hydroxybenzoic acid] | 
29 | 9 | O=C(O)c1cccc([N+](=O)[O-])c1 [3-nitrobenzoic acid] | 
30 | 11 | O=C(O)Cc1ccc(Cl)cc1 [4-chlorophenylacetic acid] | 

Source: patent US8071345B2, “Stabilized subtilisin composition” (Novozymes A/S, priority 2006, dated 2011)
